Experimental data published in patent publication US20240239755A1, “SUBSTITUTED PYRIDAZINONES, SALTS OR N-OXIDES THEREOF AND THEIR USE AS HERBICIDALLY ACTIVE SUBSTANCES” (Bayer Aktiengesellschaft, priority 2021, published 2024).

Columns and labels:
Format in all cases: in vivo
[1] = system: Amaranthus retroflexus (AMARE); experiment: Herbicidal pre-emergence action, 1280 g/ha (Table A11); settings: visual grading after ca. 3 weeks vs untreated controls
How it was run: (§1)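 Compounds were formulated as WP or EC and sprayed onto the covering soil of freshly sown pots (sandy loam) in 600 L water/ha with 0.5% additive. Pots were kept in a greenhouse, and damage was scored visually after ca. 3 weeks as % effect versus untreated controls (100% = dead).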

[2] = system: Abutilon theophrasti (ABUTH); experiment: Herbicidal post-emergence action, 1280 g/ha (Table B1); settings: visual assessment after ca. 3 weeks vs untreated controls
How it was run: (§2)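 Foliar application to single-leaf weeds in sandy loam; percent kill judged visually ca. 3 weeks later relative to untreated plants.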

[3] = system: Kochia scoparia (KCHSC); experiment: Herbicidal post-emergence action, 320 g/ha, KCHSC; settings: visual grading after ca. 3 weeks
How it was run: (§3)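 Weeds grown in sandy loam were sprayed post-emergence at the single-leaf stage, 2–3 weeks after sowing. Compounds were formulated as WP or EC with 0.5% additive and applied at 320 g/ha in 600 L water/ha. After ~3 weeks in the greenhouse, damage was scored visually as % versus untreated controls (100% = dead).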

[4] = system: Veronica persica (VERPE); experiment: Herbicidal post-emergence action, 320 g/ha, VERPE; settings: visual grading after ca. 3 weeks
How it was run: as §3

[5] = system: Stellaria media (STEME); experiment: Herbicidal post-emergence action, 320 g/ha, STEME; settings: visual grading after ca. 3 weeks
How it was run: as §3

[6] = system: Stellaria media (STEME); experiment: Herbicidal post-emergence action, 1280 g/ha (Table B9); settings: visual assessment after ca. 3 weeks vs untreated controls
How it was run: as §2

[7] = system: Kochia scoparia (KCHSC); experiment: Herbicidal post-emergence action, 1280 g/ha (Table B4); settings: visual assessment after ca. 3 weeks vs untreated controls
How it was run: as §2

[8] = system: Matricaria inodora (MATIN); experiment: Herbicidal post-emergence action, 1280 g/ha (Table B6); settings: visual assessment after ca. 3 weeks vs untreated controls
How it was run: as §2

[9] = system: Amaranthus retroflexus (AMARE); experiment: Herbicidal pre-emergence action, 320 g/ha, AMARE; settings: visual grading after ca. 3 weeks
Text: (§4) Seeds of mono- and dicotyledonous weed plants were sown in plastic pots (double sowings with one species of mono- and one species of dicotyledonous weed plants per pot), in sandy loam, and covered with soil. The compounds according to the invention, formulated in the form of wettable powders (WP) or as emulsifiable concentrates (EC), were applied to the surface of the covering soil as an aqueous suspension or as an emulsion, with the addition of 0.5% of an additive, at an application rate of 600 litres of water per hectare (converted). Following treatment, the pots were placed in a greenhouse and kept under optimum growth conditions for the test plants. The visual grading of the damage to the test plants was carried out after ca. 3 weeks in comparison to untreated controls (herbicidal effect in percent (%): 100% effect=plants have died, 0% effect=as control plants).
Tables C1 to C6 below, show the effects of selected compounds of the general formula (I) according to Table 1 on various harmful plants using an application rate corresponding to 320 g/ha obtained by the experimental procedure mentioned above.

[10] = system: Stellaria media (STEME); experiment: Herbicidal pre-emergence action, 1280 g/ha (Table A9); settings: visual grading after ca. 3 weeks vs untreated controls
How it was run: as §1

[11] = system: Veronica persica (VERPE); experiment: Herbicidal post-emergence action, 1280 g/ha, VERPE; settings: visual grading vs untreated controls
How it was run: (§5)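 Visual rating ~3 weeks after treatment: 0% equals untreated control, 100% means plants died. Treatment was a 1280 g/ha foliar spray (600 L water/ha, 0.5% additive, WP or EC formulation) applied to single-leaf-stage plants grown 2–3 weeks in sandy loam under controlled conditions.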

[12] = system: Amaranthus retroflexus (AMARE); experiment: Herbicidal post-emergence action, 1280 g/ha, AMARE; settings: visual grading vs untreated controls
How it was run: as §5

[13] = system: Lolium rigidum (LOLRI); experiment: Herbicidal pre-emergence action, 1280 g/ha (Table A5); settings: visual grading after ca. 3 weeks vs untreated controls
How it was run: as §1

[14] = system: Amaranthus retroflexus (AMARE); experiment: Herbicidal post-emergence action, 320 g/ha, AMARE; settings: visual grading after ca. 3 weeks
How it was run: as §3

[15] = system: Poa annua (POAAN); experiment: Herbicidal pre-emergence action, 1280 g/ha (Table A7); settings: visual grading after ca. 3 weeks vs untreated controls
Text: as §4, with “plants). Tables A1 to A11 below, show the effects of selected compounds of the general formula (I) according to Table 1 on various harmful plants and an application rate corresponding to 1280 g/ha obtained by the experimental procedure mentioned above.” for “plants).”

[16] = system: Lolium rigidum (LOLRI); experiment: Herbicidal post-emergence action, 1280 g/ha (Table B5); settings: visual assessment after ca. 3 weeks vs untreated controls
How it was run: as §2

[17] = system: Matricaria inodora (MATIN); experiment: Herbicidal post-emergence action, 320 g/ha, MATIN; settings: visual grading after ca. 3 weeks
How it was run: as §3

[18] = system: Matricaria inodora (MATIN); experiment: Herbicidal pre-emergence action, 1280 g/ha (Table A6); settings: visual grading after ca. 3 weeks vs untreated controls
How it was run: as §1

[19] = system: Stellaria media (STEME); experiment: Herbicidal pre-emergence action, 320 g/ha, STEME; settings: visual grading after ca. 3 weeks
How it was run: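 Percent herbicidal effect, graded by eye about 3 weeks after treatment relative to untreated pots (0% matching controls, 100% dead plants). Application of 320 g/ha onto soil covering freshly sown seeds, as aqueous suspension or emulsion plus 0.5% additive at 600 L/ha; pots kept in greenhouse.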

[20] = system: Abutilon theophrasti (ABUTH); experiment: Herbicidal pre-emergence action, 1280 g/ha (Table A1); settings: visual grading after ca. 3 weeks vs untreated controls
How it was run: as §1

[21] = system: Setaria viridis (SETVI); experiment: Herbicidal pre-emergence action, 1280 g/ha (Table A8); settings: visual grading after ca. 3 weeks vs untreated controls
Text: as §4, with “plants). Tables A1 to A11 below, show the effects of selected compounds of the general formula (I) according to Table 1 on various harmful plants and an application rate corresponding to 1280 g/ha obtained by the experimental procedure mentioned above.” for “plants).”

[22] = system: Abutilon theophrasti (ABUTH); experiment: Herbicidal post-emergence action, 320 g/ha, ABUTH; settings: visual grading after ca. 3 weeks
How it was run: as §3

[23] = system: Kochia scoparia (KCHSC); experiment: Herbicidal pre-emergence action, 1280 g/ha (Table A4); settings: visual grading after ca. 3 weeks vs untreated controls
How it was run: as §1

[24] = system: Matricaria inodora (MATIN); experiment: Herbicidal pre-emergence action, 320 g/ha (Table C3); settings: visual grading after ca. 3 weeks vs untreated controls
Text: as §4, with “plants). Tables C1 to C6 below, show the effects of selected compounds of the general formula (I) according to Table 1 on various harmful plants using an application rate corresponding to 320 g/ha obtained by the experimental procedure mentioned above.” for “plants).”

Cc1nn(C)c(=O)c(Oc2ccccc2Cl)c1O [Example I-003]
herbicidal effect AMARE [1]: 90%
herbicidal effect ABUTH [2]: 90%
herbicidal effect KCHSC [3]: 90%
herbicidal effect VERPE [4]: 100%
herbicidal effect STEME [5]: 90%
herbicidal effect STEME [6]: 100%
herbicidal effect KCHSC [7]: 100%
herbicidal effect MATIN [8]: 100%
herbicidal effect AMARE [9]: 90%
herbicidal effect STEME [10]: 100%
herbicidal effect VERPE [11]: 100%
herbicidal effect AMARE [12]: 100%
herbicidal effect LOLRI [13]: 100%
herbicidal effect AMARE [14]: 90%
herbicidal effect POAAN [15]: 90%
herbicidal effect LOLRI [16]: 90%

Cc1nn(C)c(=O)c(Oc2ccccc2C2CC2)c1O [Example I-014]
herbicidal effect AMARE [1]: 100%
herbicidal effect MATIN [17]: 90%
herbicidal effect MATIN [18]: 100%
herbicidal effect KCHSC [3]: 100%
herbicidal effect STEME [5]: 100%
herbicidal effect STEME [6]: 100%
herbicidal effect KCHSC [7]: 100%
herbicidal effect STEME [19]: 100%
herbicidal effect MATIN [8]: 90%
herbicidal effect AMARE [9]: 90%
herbicidal effect STEME [10]: 100%
herbicidal effect VERPE [11]: 90%
herbicidal effect AMARE [12]: 90%
herbicidal effect ABUTH [20]: 90%
herbicidal effect LOLRI [13]: 100%
herbicidal effect AMARE [14]: 90%
herbicidal effect POAAN [15]: 90%
herbicidal effect SETVI [21]: 90%
herbicidal effect LOLRI [16]: 90%

Cc1nn(C)c(=O)c(Oc2cc(Cl)cc(Cl)c2)c1O [Example I-027]
herbicidal effect ABUTH [2]: 90%
herbicidal effect ABUTH [22]: 90%
herbicidal effect MATIN [18]: 100%
herbicidal effect STEME [5]: 90%
herbicidal effect STEME [6]: 90%
herbicidal effect KCHSC [7]: 90%
herbicidal effect KCHSC [23]: 90%
herbicidal effect STEME [19]: 100%
herbicidal effect STEME [10]: 100%
herbicidal effect VERPE [11]: 90%
herbicidal effect AMARE [12]: 100%
herbicidal effect MATIN [24]: 100%
herbicidal effect ABUTH [20]: 100%
herbicidal effect LOLRI [13]: 100%
herbicidal effect AMARE [14]: 90%
